From ChEMBL document CHEMBL3885861, “Open TG-GATES”

Species on record: Rattus norvegicus
Experiment: Open TG-GATES - Regimen: Single
Format: toxicity, organism-based, Sprague-Dawley
Design: regimen Single, gender Male, age 6 weeks
Settings: in vivo, po, 1000 mg/kg, route gavage, dose level High; for APTT / Bas / Eos / Fbg / Hb / Ht / Lym / MCH / MCHC / MCV / Mono / Neu / PT / Plat / RBC / Ret / WBC: tissue Blood; for KIDNEY_L / KIDNEY_R / KIDNEY_TOTAL: tissue Kidney; for LIVER: tissue Liver; for A/G / ALP / ALT / AST / BUN / CRE / Ca / Cl / DBIL / GLC / IP / K / LDH / Na / PL / RALB / TBIL / TC / TG / TP / gamma-GTP: tissue Plasma

Question: `CC[C@@H](CO)NCCN[C@@H](CC)CO` [ETHAMBUTOL] was tested. Which TERMINAL_BW (3 h) did it give?
Answer: 224.6 g

Question: What about the APTT (3 h) of the same compound?
Answer: 23.9 s

Question: And the Bas (3 h)?
Answer: 0%

Question: What about the Eos (3 h) of the same compound?
Answer: 0.8%

Question: What about the Fbg (3 h) of the same compound?
Answer: 301.6 mg/dL

Question: What about the Hb (3 h) of the same compound?
Answer: 13.7 g/dL

Question: And the Ht (3 h)?
Answer: 40.3%

Question: What about the Lym (3 h) of the same compound?
Answer: 81.2%

Question: What about the MCH (3 h) of the same compound?
Answer: 21.3 pg

Question: And the MCHC (3 h)?
Answer: 33.9%

Question: And the MCV (3 h)?
Answer: 62.7 fL

Question: And the Mono (3 h)?
Answer: 2.2%

Question: And the Neu (3 h)?
Answer: 15.4%

Question: And the PT (3 h)?
Answer: 15.7 s

Question: What about the Plat (3 h) of the same compound?
Answer: 126.2 x10_4/uL

Question: What about the RBC (3 h) of the same compound?
Answer: 643.4 x10_4/ul

Question: What about the Ret (3 h) of the same compound?
Answer: 7.5%

Question: And the WBC (3 h)?
Answer: 67.7 x10_2/uL

Question: What about the KIDNEY_L (3 h) of the same compound?
Answer: 1 g

Question: And the KIDNEY_R (3 h)?
Answer: 1 g

Question: And the KIDNEY_TOTAL (3 h)?
Answer: 2.1 g

Question: What about the LIVER (3 h) of the same compound?
Answer: 9.9 g

Question: What about the A/G (3 h) of the same compound?
Answer: 1.2

Question: What about the ALP (3 h) of the same compound?
Answer: 1529.4 IU/L

Question: What about the ALT (3 h) of the same compound?
Answer: 41.8 IU/L

Question: What about the AST (3 h) of the same compound?
Answer: 74.8 IU/L

Question: What about the BUN (3 h) of the same compound?
Answer: 10.4 mg/dL

Question: What about the CRE (3 h) of the same compound?
Answer: 0.1 mg/dL

Question: And the Ca (3 h)?
Answer: 10.1 mg/dL

Question: What about the Cl (3 h) of the same compound?
Answer: 106.8 meq/L

Question: What about the DBIL (3 h) of the same compound?
Answer: 0 mg/dL

Question: What about the GLC (3 h) of the same compound?
Answer: 173.8 mg/dL

Question: What about the IP (3 h) of the same compound?
Answer: 8.7 mg/dL

Question: And the K (3 h)?
Answer: 3.9 meq/L

Question: And the LDH (3 h)?
Answer: 175.6 IU/L

Question: And the Na (3 h)?
Answer: 141.6 meq/L

Question: And the PL (3 h)?
Answer: 139 mg/dL

Question: And the RALB (3 h)?
Answer: 3 g/dL

Question: And the TBIL (3 h)?
Answer: 0.018 mg/dL

Question: What about the TC (3 h) of the same compound?
Answer: 83.8 mg/dL

Question: What about the TG (3 h) of the same compound?
Answer: 35.6 mg/dL

Question: And the TP (3 h)?
Answer: 5.4 g/dL

Question: What about the gamma-GTP (3 h) of the same compound?
Answer: 1.8 IU/L

Question: What about the TERMINAL_BW (6 h) of the same compound?
Answer: 222.4 g

Question: And the APTT (6 h)?
Answer: 22.3 s

Question: And the Bas (6 h)?
Answer: 0%

Question: And the Eos (6 h)?
Answer: 1%

Question: And the Fbg (6 h)?
Answer: 308.6 mg/dL

Question: And the Hb (6 h)?
Answer: 13.7 g/dL

Question: What about the Ht (6 h) of the same compound?
Answer: 40.2%

Question: What about the Lym (6 h) of the same compound?
Answer: 77.4%

Question: What about the MCH (6 h) of the same compound?
Answer: 21.1 pg

Question: And the MCHC (6 h)?
Answer: 34.1%

Question: And the MCV (6 h)?
Answer: 61.9 fL

Question: And the Mono (6 h)?
Answer: 2.8%

Question: What about the Neu (6 h) of the same compound?
Answer: 18%

Question: What about the PT (6 h) of the same compound?
Answer: 15.9 s

Question: What about the Plat (6 h) of the same compound?
Answer: 123.5 x10_4/uL

Question: And the RBC (6 h)?
Answer: 650.6 x10_4/ul

Question: What about the Ret (6 h) of the same compound?
Answer: 7.1%

Question: What about the WBC (6 h) of the same compound?
Answer: 70.3 x10_2/uL

Question: And the KIDNEY_L (6 h)?
Answer: 1 g

Question: And the KIDNEY_R (6 h)?
Answer: 1 g

Question: What about the KIDNEY_TOTAL (6 h) of the same compound?
Answer: 2 g

Question: What about the LIVER (6 h) of the same compound?
Answer: 9.5 g

Question: And the A/G (6 h)?
Answer: 1.2

Question: What about the ALP (6 h) of the same compound?
Answer: 1436.4 IU/L

Question: And the ALT (6 h)?
Answer: 35.6 IU/L

Question: And the AST (6 h)?
Answer: 67.4 IU/L

Question: And the BUN (6 h)?
Answer: 9.8 mg/dL

Question: What about the CRE (6 h) of the same compound?
Answer: 0.1 mg/dL

Question: And the Ca (6 h)?
Answer: 10 mg/dL

Question: What about the Cl (6 h) of the same compound?
Answer: 108 meq/L

Question: What about the DBIL (6 h) of the same compound?
Answer: 0.002 mg/dL

Question: And the GLC (6 h)?
Answer: 186.4 mg/dL

Question: What about the IP (6 h) of the same compound?
Answer: 9.4 mg/dL

Question: And the K (6 h)?
Answer: 4.1 meq/L

Question: And the LDH (6 h)?
Answer: 176.4 IU/L

Question: And the Na (6 h)?
Answer: 141.4 meq/L

Question: What about the PL (6 h) of the same compound?
Answer: 134 mg/dL

Question: And the RALB (6 h)?
Answer: 3 g/dL

Question: And the TBIL (6 h)?
Answer: 0.03 mg/dL

Question: And the TC (6 h)?
Answer: 75.4 mg/dL

Question: What about the TG (6 h) of the same compound?
Answer: 43.2 mg/dL

Question: And the TP (6 h)?
Answer: 5.5 g/dL

Question: What about the gamma-GTP (6 h) of the same compound?
Answer: 1.4 IU/L

Question: And the TERMINAL_BW (9 h)?
Answer: 217 g

Question: What about the APTT (9 h) of the same compound?
Answer: 22.3 s

Question: And the Bas (9 h)?
Answer: 0%

Question: What about the Eos (9 h) of the same compound?
Answer: 0.2%

Question: And the Fbg (9 h)?
Answer: 312 mg/dL

Question: And the Hb (9 h)?
Answer: 13.9 g/dL

Question: What about the Ht (9 h) of the same compound?
Answer: 40.3%

Question: And the Lym (9 h)?
Answer: 79.2%

Question: And the MCH (9 h)?
Answer: 22 pg

Question: And the MCHC (9 h)?
Answer: 34.4%

Question: What about the MCV (9 h) of the same compound?
Answer: 64.1 fL

Question: And the Mono (9 h)?
Answer: 1.4%

Question: What about the Neu (9 h) of the same compound?
Answer: 17.8%

Question: What about the PT (9 h) of the same compound?
Answer: 16.3 s

Question: What about the Plat (9 h) of the same compound?
Answer: 116.9 x10_4/uL

Question: What about the RBC (9 h) of the same compound?
Answer: 630 x10_4/ul

Question: And the Ret (9 h)?
Answer: 7.6%

Question: What about the WBC (9 h) of the same compound?
Answer: 68.6 x10_2/uL

Question: And the KIDNEY_L (9 h)?
Answer: 1 g

Question: And the KIDNEY_R (9 h)?
Answer: 1 g

Question: And the KIDNEY_TOTAL (9 h)?
Answer: 1.9 g

Question: And the LIVER (9 h)?
Answer: 8.7 g

Question: And the A/G (9 h)?
Answer: 1.1

Question: And the ALP (9 h)?
Answer: 1464.4 IU/L

Question: And the ALT (9 h)?
Answer: 35.8 IU/L

Question: And the AST (9 h)?
Answer: 68.2 IU/L

Question: What about the BUN (9 h) of the same compound?
Answer: 11.4 mg/dL

Question: And the CRE (9 h)?
Answer: 0.1 mg/dL

Question: And the Ca (9 h)?
Answer: 9.9 mg/dL

Question: What about the Cl (9 h) of the same compound?
Answer: 108.2 meq/L

Question: And the DBIL (9 h)?
Answer: 0.002 mg/dL

Question: And the GLC (9 h)?
Answer: 177.8 mg/dL

Question: And the IP (9 h)?
Answer: 8.8 mg/dL

Question: What about the K (9 h) of the same compound?
Answer: 3.9 meq/L

Question: What about the LDH (9 h) of the same compound?
Answer: 143 IU/L

Question: What about the Na (9 h) of the same compound?
Answer: 140 meq/L

Question: And the PL (9 h)?
Answer: 121 mg/dL

Question: And the RALB (9 h)?
Answer: 3 g/dL

Question: What about the TBIL (9 h) of the same compound?
Answer: 0.022 mg/dL

Question: And the TC (9 h)?
Answer: 63.8 mg/dL

Question: What about the TG (9 h) of the same compound?
Answer: 44.6 mg/dL

Question: And the TP (9 h)?
Answer: 5.6 g/dL

Question: And the gamma-GTP (9 h)?
Answer: 1.6 IU/L

Question: And the TERMINAL_BW (24 h)?
Answer: 227.8 g

Question: And the APTT (24 h)?
Answer: 22.5 s

Question: What about the Bas (24 h) of the same compound?
Answer: 0%

Question: And the Eos (24 h)?
Answer: 1%

Question: What about the Fbg (24 h) of the same compound?
Answer: 306.4 mg/dL

Question: And the Hb (24 h)?
Answer: 13.4 g/dL

Question: And the Ht (24 h)?
Answer: 39.2%

Question: And the Lym (24 h)?
Answer: 76%

Question: And the MCH (24 h)?
Answer: 21.5 pg

Question: What about the MCHC (24 h) of the same compound?
Answer: 34.3%

Question: What about the MCV (24 h) of the same compound?
Answer: 62.9 fL

Question: What about the Mono (24 h) of the same compound?
Answer: 3%

Question: What about the Neu (24 h) of the same compound?
Answer: 18.6%

Question: What about the PT (24 h) of the same compound?
Answer: 16.7 s

Question: And the Plat (24 h)?
Answer: 118 x10_4/uL

Question: And the RBC (24 h)?
Answer: 623.4 x10_4/ul

Question: What about the Ret (24 h) of the same compound?
Answer: 6.9%

Question: And the WBC (24 h)?
Answer: 94.9 x10_2/uL

Question: And the KIDNEY_L (24 h)?
Answer: 1 g

Question: And the KIDNEY_R (24 h)?
Answer: 1.1 g

Question: And the KIDNEY_TOTAL (24 h)?
Answer: 2.1 g

Question: And the LIVER (24 h)?
Answer: 10.5 g

Question: And the A/G (24 h)?
Answer: 1.2

Question: And the ALP (24 h)?
Answer: 1508.4 IU/L

Question: What about the ALT (24 h) of the same compound?
Answer: 46.8 IU/L

Question: What about the AST (24 h) of the same compound?
Answer: 74 IU/L

Question: And the BUN (24 h)?
Answer: 13.4 mg/dL

Question: And the CRE (24 h)?
Answer: 0.1 mg/dL

Question: And the Ca (24 h)?
Answer: 10.5 mg/dL

Question: What about the Cl (24 h) of the same compound?
Answer: 105 meq/L

Question: And the DBIL (24 h)?
Answer: 0.002 mg/dL

Question: What about the GLC (24 h) of the same compound?
Answer: 183.8 mg/dL

Question: What about the IP (24 h) of the same compound?
Answer: 8.3 mg/dL

Question: What about the K (24 h) of the same compound?
Answer: 3.9 meq/L

Question: What about the LDH (24 h) of the same compound?
Answer: 158 IU/L

Question: What about the Na (24 h) of the same compound?
Answer: 139.4 meq/L

Question: And the PL (24 h)?
Answer: 135.4 mg/dL

Question: What about the RALB (24 h) of the same compound?
Answer: 3 g/dL

Question: And the TBIL (24 h)?
Answer: 0.022 mg/dL

Question: What about the TC (24 h) of the same compound?
Answer: 74.6 mg/dL

Question: What about the TG (24 h) of the same compound?
Answer: 53.2 mg/dL

Question: What about the TP (24 h) of the same compound?
Answer: 5.5 g/dL

Question: What about the gamma-GTP (24 h) of the same compound?
Answer: 2 IU/L
